Measurements published in the Kinase Knowledgebase extract (Sharma et al. 2016).
Values after ≈ are worked out from the molar mass of the structure shown.

Columns and labels:
[1] = molecular target: EGFR (human) (UniProt P00533); details: hn5
[2] = molecular target: EGFR (mouse) (UniProt P00533); details: swiss 3t3 fibroblast
[3] = tested on: PIK3CG (murine); assay: Inhibition of C5a-Mediated AKT Phosphorylation in Raw 264.7 Macrophages
[4] = molecular target: EGFR (murine) (UniProt P00533); details: f/l herc cells
[5] = molecular target: EGFR (human) (UniProt P00533)
[6] = molecular target: MAPK14 (UniProt Q16539); assay: p38 Inhibition Assay (in Vitro)
Sequence of MAPK14 (Q16539 whole entry, looked up): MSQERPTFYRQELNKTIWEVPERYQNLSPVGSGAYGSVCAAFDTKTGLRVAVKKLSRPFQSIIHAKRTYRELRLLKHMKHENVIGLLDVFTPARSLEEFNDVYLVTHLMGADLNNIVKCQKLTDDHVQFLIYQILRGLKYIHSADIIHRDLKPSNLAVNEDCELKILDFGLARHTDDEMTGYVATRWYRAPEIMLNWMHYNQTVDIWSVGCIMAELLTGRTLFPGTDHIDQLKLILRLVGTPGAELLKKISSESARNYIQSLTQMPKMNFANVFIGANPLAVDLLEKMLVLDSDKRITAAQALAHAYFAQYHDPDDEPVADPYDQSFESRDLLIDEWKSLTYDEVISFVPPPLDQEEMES

[7] = molecular target: MAPK14 (UniProt Q16539); assay: MAPK14 Kinase Inhibition
[8] = molecular target: MAPK14 (UniProt Q16539); assay: p38 Inhibition
[9] = molecular target: MAPK14 (UniProt Q16539); assay: Inhibition of p38 Kinase Activity
[10] = molecular target: EGFR (UniProt P00533)
Sequence of EGFR (P00533 whole entry, looked up): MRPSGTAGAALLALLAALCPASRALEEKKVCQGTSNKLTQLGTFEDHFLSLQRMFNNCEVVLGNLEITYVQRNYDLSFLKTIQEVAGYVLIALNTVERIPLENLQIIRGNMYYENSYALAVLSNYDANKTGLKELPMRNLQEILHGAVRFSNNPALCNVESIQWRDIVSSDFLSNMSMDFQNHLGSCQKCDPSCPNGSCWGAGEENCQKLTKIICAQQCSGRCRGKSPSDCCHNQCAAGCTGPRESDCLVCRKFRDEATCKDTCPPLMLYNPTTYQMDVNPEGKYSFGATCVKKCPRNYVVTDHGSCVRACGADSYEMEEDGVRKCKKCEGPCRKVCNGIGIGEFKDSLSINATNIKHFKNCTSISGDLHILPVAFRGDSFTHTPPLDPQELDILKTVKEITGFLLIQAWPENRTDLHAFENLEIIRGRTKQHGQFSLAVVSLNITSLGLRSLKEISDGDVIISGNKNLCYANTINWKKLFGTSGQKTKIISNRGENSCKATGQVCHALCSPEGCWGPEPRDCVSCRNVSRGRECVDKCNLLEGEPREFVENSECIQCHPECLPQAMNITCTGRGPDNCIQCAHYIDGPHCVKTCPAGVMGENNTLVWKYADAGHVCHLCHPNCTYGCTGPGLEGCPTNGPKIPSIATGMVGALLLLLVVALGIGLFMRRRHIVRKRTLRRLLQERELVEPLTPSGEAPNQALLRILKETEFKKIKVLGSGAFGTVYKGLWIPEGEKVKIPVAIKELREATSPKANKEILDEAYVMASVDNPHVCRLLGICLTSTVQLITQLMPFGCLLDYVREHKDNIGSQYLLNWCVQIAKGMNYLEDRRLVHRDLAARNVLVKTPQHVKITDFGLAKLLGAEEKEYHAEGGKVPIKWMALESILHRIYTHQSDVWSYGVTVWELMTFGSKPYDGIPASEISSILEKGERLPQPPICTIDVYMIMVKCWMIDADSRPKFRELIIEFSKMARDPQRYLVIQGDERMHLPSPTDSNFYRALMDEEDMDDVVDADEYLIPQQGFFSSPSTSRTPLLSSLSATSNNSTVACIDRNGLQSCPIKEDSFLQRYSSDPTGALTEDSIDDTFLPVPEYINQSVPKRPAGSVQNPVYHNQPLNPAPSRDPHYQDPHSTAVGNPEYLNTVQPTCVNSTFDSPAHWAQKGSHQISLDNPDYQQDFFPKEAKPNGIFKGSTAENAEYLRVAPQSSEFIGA

[11] = molecular target: MAPK14 (human) (UniProt Q16539); assay: Inhibition of TNF-alpha Production in LPS Stimulated Whole Blood; details: blood cells
Sequence of MAPK14 (human) (Q16539 whole entry, looked up): as the sequence (Q16539 whole entry, looked up) above

[12] = molecular target: EGFR (Human), P00533 [T790M/L858R]
Sequence of EGFR (Human), P00533 [T790M/L858R] (P00533 whole entry T790M/L858R, looked up): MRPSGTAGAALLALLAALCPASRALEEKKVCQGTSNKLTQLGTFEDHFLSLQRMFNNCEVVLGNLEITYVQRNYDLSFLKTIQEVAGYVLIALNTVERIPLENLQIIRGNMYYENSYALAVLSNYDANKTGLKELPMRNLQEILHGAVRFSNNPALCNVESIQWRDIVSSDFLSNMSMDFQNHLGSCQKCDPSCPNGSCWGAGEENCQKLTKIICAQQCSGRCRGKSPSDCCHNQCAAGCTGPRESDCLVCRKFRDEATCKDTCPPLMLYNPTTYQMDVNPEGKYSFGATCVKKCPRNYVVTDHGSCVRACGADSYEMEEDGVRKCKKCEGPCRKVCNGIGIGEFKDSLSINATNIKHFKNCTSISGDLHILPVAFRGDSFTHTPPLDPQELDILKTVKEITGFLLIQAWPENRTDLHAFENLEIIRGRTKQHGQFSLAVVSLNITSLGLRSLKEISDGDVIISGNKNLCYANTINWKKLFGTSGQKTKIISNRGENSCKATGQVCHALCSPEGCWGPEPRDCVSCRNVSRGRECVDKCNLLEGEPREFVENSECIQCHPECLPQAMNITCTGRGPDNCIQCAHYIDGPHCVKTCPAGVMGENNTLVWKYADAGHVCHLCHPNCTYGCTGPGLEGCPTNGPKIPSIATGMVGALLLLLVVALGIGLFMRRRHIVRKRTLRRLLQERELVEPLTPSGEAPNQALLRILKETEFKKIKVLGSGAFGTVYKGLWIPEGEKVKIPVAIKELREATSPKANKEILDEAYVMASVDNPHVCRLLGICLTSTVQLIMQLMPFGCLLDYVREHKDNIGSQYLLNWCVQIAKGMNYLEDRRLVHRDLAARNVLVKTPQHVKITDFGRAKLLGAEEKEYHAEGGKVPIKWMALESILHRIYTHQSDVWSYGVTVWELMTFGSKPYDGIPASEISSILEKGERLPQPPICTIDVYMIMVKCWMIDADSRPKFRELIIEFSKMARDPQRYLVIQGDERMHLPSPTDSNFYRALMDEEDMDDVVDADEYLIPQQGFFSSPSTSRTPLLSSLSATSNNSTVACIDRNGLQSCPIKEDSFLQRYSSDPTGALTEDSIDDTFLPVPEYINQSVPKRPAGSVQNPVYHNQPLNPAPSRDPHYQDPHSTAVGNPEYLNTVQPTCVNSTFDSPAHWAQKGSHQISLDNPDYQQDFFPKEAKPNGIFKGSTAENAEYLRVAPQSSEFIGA

[13] = molecular target: EGFR (murine) (UniProt P00533); details: nih 3t3
[14] = molecular target: EGFR (UniProt P00533); remark: listed apart in the source
[15] = molecular target: MAPK14 (UniProt Q16539); assay: Assessment of MAPK14 Kinase Activity
[16] = molecular target: MAPK14 (human) (UniProt Q16539); assay: TNF Inhibition (PBMC)
[17] = molecular target: EGFR (UniProt P00533); remark: listed apart in the source
[18] = molecular target: EGFR (UniProt P00533); details: concentration not given here
[19] = molecular target: ROCK2 (UniProt O75116); assay: Inhibition of ROCK2 Kinase Activity
[20] = molecular target: CDK2 (human) (UniProt P24941); assay: Enzyme Assay; details: concentration not given here
[21] = molecular target: ROCK2 (human) (UniProt O75116); assay: Inhibition of ROCK2 Kinase Activity; details: concentration not given here

Sequence of EGFR (human) (P00533 whole entry, looked up): as the sequence (P00533 whole entry, looked up) above

`CN(C)C(=O)[C@@H]1CCCN1Cc1ccc(-c2cc3c(Nc4ccc(OCc5ccccc5)cc4)ncnc3cn2)o1` was tested. Which IC50 [1] did it give?
The IC50 was 3300 nM.

How did the IC50 [2] turn out when `COc1cccc2c(C(=O)Nc3ccccc3)c(SSc3c(C(=O)Nc4ccccc4)c4cccc(OC)c4n3C)n(C)c12` was run?
The IC50 was greater than 100000 nM.

`Cn1c(SSc2c(C(=O)Nc3ccccc3)c3ccccc3n2C)c(C(=O)Nc2ccccc2)c2ccccc21` was tested. Which IC50 [2] did it give?
The IC50 was greater than 100000 nM.

For `COc1ccc2c(C(=O)Nc3ccccc3)c(SSc3c(C(=O)Nc4ccccc4)c4ccc(OC)cc4n3C)n(C)c2c1`, which IC50 [2] is on record?
The IC50 was greater than 100000 nM.

With `O=C1NC(=O)/C(=C/c2ccc3c(c2)OCO3)S1` as the compound, how does the inhibition [3] read?
The inhibition was 100%.

Which IC50 [4] does the source give for `CCOC(=O)CN(CCOc1cc2c(Nc3cccc(Br)c3)ncnc2cc1OC)CC(=O)OCC` here?
Its IC50 is 70 nM.

With `OCCN(CCO)CC1COc2cc3ncnc(Nc4cccc(Br)c4)c3cc2O1` (stereo not given) as the compound, how does the IC50 [5] read?
Its IC50 is 0.021 µg/mL (≈ 0.0442 µM).

`O=C(NCc1ccc(S(=O)(=O)N2CCN(C(=O)N3C=Cc4oncc4C3)CC2)s1)c1ccc(Cl)cc1` was tested. Which IC50 [6] did it give?
Its IC50 is greater than 30000 nM.

How did the IC50 [7] turn out when `Fc1ccc(-c2ncccc2-c2ccnc(Oc3ccccc3)n2)cc1` was run?
The IC50 was less than 50000 nM.

For `O=C(NCc1ccc(S(=O)(=O)NNC(=O)c2csc(COc3ccccc3Cl)n2)s1)c1ccc(Cl)cc1`, which IC50 [8] is on record?
The IC50 was greater than 30000 nM.

And the IC50 [9]?
The IC50 was greater than 30000 nM.

Which IC50 [10] does the source give for `CN(C)CCCCN1CCOc2cc3ncc(C#N)c(Nc4ccc(F)c(Cl)c4)c3cc21` here?
The IC50 was 5 nM.

How did the IC50 [7] turn out when `COc1nccc(-c2cccnc2-c2ccc(F)cc2)n1` was run?
Its IC50 is less than 50000 nM.

For `CN1CCN(CC2COc3cc4ncnc(Nc5cccc(Br)c5)c4cc3O2)CC1` (stereo not given), which IC50 [5] is on record?
The IC50 was 0.058 µg/mL (≈ 0.123 µM).

How did the IC50 [11] turn out when `C=CCOCCn1c(SC)nc(-c2ccc(F)cc2)c1-c1ccnc(NC(C)=O)c1` was run?
The IC50 was greater than 100000 nM.

With `C=CC(=O)Nc1cccc(Nc2nc(NCc3cnn(C)c3)ncc2Cl)c1` as the compound, how does the IC50 [12] read?
The IC50 was 10 to 100 nM.

How did the IC50 [4] turn out when `CCOC(=O)CN(C)CCOc1cc2c(Nc3cccc(Br)c3)ncnc2cc1OC` was run?
Its IC50 is 100 nM.

For `COC(=O)Nc1nc2ccc(Oc3ccccc3)nc2[nH]1`, which IC50 [13] is on record?
Its IC50 is greater than 100000 nM.

Which IC50 [4] does the source give for `CCOC(=O)CN1CCC[C@H]1COc1cc2c(Nc3cccc(Br)c3)ncnc2cc1OC` here?
The IC50 was 20 nM.

For `O=C(CCCNc1ncc(C(F)(F)F)cc1Cl)NNS(=O)(=O)c1ccc(CNC(=O)c2ccccc2O)s1`, which IC50 [9] is on record?
The IC50 was greater than 30000 nM.

With `CN(C(=O)NCCCl)c1ccc2ncnc(Nc3cccc(Cl)c3)c2c1` as the compound, how does the IC50 [14] read?
Its IC50 is 81 nM.

How did the IC50 [6] turn out when `O=C(NCc1ccc(S(=O)(=O)N2CCN(c3ncccn3)CC2)s1)c1ccc(Cl)cc1` was run?
Its IC50 is greater than 30000 nM.

Which IC50 [15] does the source give for `CC(C)(CO)Nc1ncc2cc(-c3ccccc3Cl)c3nccn3c2n1` here?
The IC50 was 18.8 nM.

For `Nc1ccc2c(-c3ccncc3)c(-c3ccc(F)cc3)[nH]c2c1`, which IC50 [16] is on record?
The IC50 was 200 nM.

For `Cc1ccccc1Nc1nccc(-c2cccnc2-c2ccc(F)cc2)n1`, which IC50 [7] is on record?
Its IC50 is less than 50000 nM.

With `CSc1nccc(-c2cccnc2-c2ccc(F)cc2)n1` as the compound, how does the IC50 [7] read?
Its IC50 is less than 50000 nM.

`CCOC(=O)CN1CCN(CCCOc2cc3c(Nc4cccc(Br)c4)ncnc3cc2OC)C(O)C1` (stereo not given) was tested. Which IC50 [4] did it give?
The IC50 was 33 nM.

`C=CC(=O)N[C@@H]1CCCC[C@H](Nc2nc(Nc3cnn(C)c3)ncc2Cl)C1` was tested. Which IC50 [12] did it give?
Its IC50 is 10 to 100 nM.

With `COC(=O)CCC1CN(CC(=O)OC)CCN1CCOc1cc2c(Nc3cccc(Br)c3)ncnc2cc1OC` (stereo not given) as the compound, how does the IC50 [4] read?
The IC50 was 77 nM.

Which IC50 [8] does the source give for `O=C(NCc1ccc(S(=O)(=O)NNC(=O)c2csc(-c3ccc(C4SCCS4)cc3)n2)s1)c1ccc(Cl)cc1` here?
Its IC50 is greater than 30000 nM.

What about the IC50 [9] of the same compound?
The IC50 was greater than 30000 nM.

`COc1ccc2c(-c3ccncc3)c(-c3ccc(F)cc3)[nH]c2c1` was tested. Which IC50 [16] did it give?
The IC50 was 400 nM.

With `N#Cc1cnc2c(sc3ccc([N+](=O)[O-])cc32)c1Nc1cccc(Br)c1` as the compound, how does the IC50 [17] read?
Its IC50 is 10000 nM.

For `O=c1[nH]c2ccc(Sc3ccccc3)nc2[nH]1`, which IC50 [13] is on record?
The IC50 was greater than 100000 nM.

With `NC(=O)c1c(NC(=O)Nc2ccccc2)sc2cc(O)ccc12` as the compound, how does the inhibition [18] read?
Its inhibition is greater than 50%.

And the inhibition ([19]; concentration not given here)?
Its inhibition is greater than 50%.

For `NS(=O)(=O)c1ccc(Nc2nc(OCC3CCCCC3)c3nc[nH]c3n2)cc1`, which IC50 [19] is on record?
Its IC50 is 600 nM.

Which IC50 [14] does the source give for `CN(C(=O)NCCCl)c1ccc2ncnc(Nc3cccc(Br)c3)c2c1` here?
Its IC50 is 156 nM.

For `Cn1c(SSc2c(C(=O)Nc3ccccc3)c3cccnc3n2C)c(C(=O)Nc2ccccc2)c2cccnc21`, which IC50 [2] is on record?
The IC50 was greater than 25000 nM.

For `C=CC(=O)N[C@H]1CCC[C@@H](Nc2nc(Nc3cnn(C)c3)ncc2Cl)C1`, which IC50 [12] is on record?
The IC50 was 10 to 100 nM.

`CC(=O)OCCCCc1nc(-c2ccncc2)c(-c2ccc(F)cc2)n1COCC[Si](C)(C)C` was tested. Which inhibition ([16]; concentration not given here) did it give?
The inhibition was 0%.

For `OCCNCC1COc2cc3ncnc(Nc4cccc(Br)c4)c3cc2O1` (stereo not given), which IC50 [5] is on record?
The IC50 was 0.022 µg/mL (≈ 0.051 µM).

What does the source list for `O=C(NCc1ccc(S(=O)(=O)N2CCC(n3nnc4ccccc43)CC2)s1)c1ccc(Cl)cc1`?
inhibition [20]: 1%; IC50 [6]: > 30000 nM; inhibition [21]: -1%
